# According to ChEMBL document CHEMBL6153133, “Discovery of Diphenyl Ether Derivatives as Novel BKCa Channel Activators: Structure-Activity Relationship, Cryo-EM Complex Structures, and In Vivo Animal Studies” (J Med Chem, 2025):
# The source made the active and inactive calls. No cut-off for these calls is given here.
# Key:
# [1] = test system: Calcium-activated potassium channel subunit alpha-1 (Homo sapiens), Q12791 [UNDEFINED MUTATION]; assay: (§1) Activation of hyperactive human BKca channel G803D/N806K mutant transfected in human AD-293 cells assessed as maximum relative fluorescence value at 5 uM preincubated for 15 mins followed by Tl+ stimulus buffer addition and measured after 80 sec by Flexstation3 multimode microplate reader analysis relative to control; assay type: cell-based; settings: time 980.0 sec
# [2] = test system: Calcium-activated potassium channel subunit alpha-1 (Homo sapiens), Q12791 [UNDEFINED MUTATION]; assay: as §1, with “at 1” for “at 5”; assay type: cell-based; settings: time 980.0 sec
# [3] = test system: Calcium-activated potassium channel subunit alpha-1 (Homo sapiens), Q12791 [UNDEFINED MUTATION]; assay: (§2) Activation of hyperactive human BKca channel G803D/N806K mutant transfected in human AD-293 cells incubated for 15 mins by Flexstation3 multimode microplate reader analysis; assay type: cell-based
# [4] = biological target: Calcium-activated potassium channel subunit alpha-1 (Homo sapiens, UniProt Q12791, G803D/N806K); assay: as §2; assay type: cell-based
# [5] = AUClast in male Sprague-Dawley rat at 10 mg/kg, po by LC-MS/MS analysis; assay type: ADME, organism-based; settings: in vivo
# [6] = AUClast in male Sprague-Dawley rat at 10 mg/kg, iv by LC-MS/MS analysis; assay type: ADME, organism-based; settings: in vivo
# [7] = Volume of distribution at steady state in male Sprague-Dawley rat at 10 mg/kg, iv by LC-MS/MS analysis; assay type: ADME, organism-based; settings: in vivo, read-out: Vdss
# [8] = Half-life in male Sprague-Dawley rat at 10 mg/kg, po by LC-MS/MS analysis; assay type: ADME, organism-based; settings: in vivo
# [9] = Cmax in male Sprague-Dawley rat at 10 mg/kg, po by LC-MS/MS analysis; assay type: ADME, organism-based; settings: in vivo
# [10] = Half-life in male Sprague-Dawley rat at 10 mg/kg, iv by LC-MS/MS analysis; assay type: ADME, organism-based; settings: in vivo
# [11] = Oral bioavailability in male Sprague-Dawley rat at 10 mg/kg by LC-MS/MS analysis; assay type: ADME, organism-based; settings: in vivo
# [12] = Tmax in male Sprague-Dawley rat at 10 mg/kg, po by LC-MS/MS analysis; assay type: ADME, organism-based; settings: in vivo
# [13] = Clearance in male Sprague-Dawley rat at 10 mg/kg, iv by LC-MS/MS analysis; assay type: ADME, organism-based; settings: in vivo
# [14] = Metabolic stability in human liver microsomes assessed as parent compound remaining at 1 uM preincubated for 5 mins followed by NADPH addition and measured after 30 mins by LC-MS/MS analysis; assay type: ADME, Microsome; settings: read-out: Stability
# [15] = Metabolic stability in rat liver microsomes assessed as parent compound remaining at 1 uM preincubated for 5 mins followed by NADPH addition and measured after 30 mins by LC-MS/MS analysis; assay type: ADME, Microsome; settings: read-out: Stability
# [16] = Metabolic stability in rat liver microsomes assessed as parent compound remaining at 1 uM preincubated for 15 mins followed by UDPGA addition and measured after 60 mins by LC-MS/MS analysis; assay type: ADME, Microsome; settings: time 75 min, read-out: Stability
# [17] = Metabolic stability in human liver microsomes assessed as parent compound remaining at 1 uM preincubated for 15 mins followed by UDPGA addition and measured after 60 mins by LC-MS/MS analysis; assay type: ADME, Microsome; settings: time 75 min, read-out: Stability
# Sequence of Calcium-activated potassium channel subunit alpha-1 (Q12791 whole entry, looked up, stated change not applied): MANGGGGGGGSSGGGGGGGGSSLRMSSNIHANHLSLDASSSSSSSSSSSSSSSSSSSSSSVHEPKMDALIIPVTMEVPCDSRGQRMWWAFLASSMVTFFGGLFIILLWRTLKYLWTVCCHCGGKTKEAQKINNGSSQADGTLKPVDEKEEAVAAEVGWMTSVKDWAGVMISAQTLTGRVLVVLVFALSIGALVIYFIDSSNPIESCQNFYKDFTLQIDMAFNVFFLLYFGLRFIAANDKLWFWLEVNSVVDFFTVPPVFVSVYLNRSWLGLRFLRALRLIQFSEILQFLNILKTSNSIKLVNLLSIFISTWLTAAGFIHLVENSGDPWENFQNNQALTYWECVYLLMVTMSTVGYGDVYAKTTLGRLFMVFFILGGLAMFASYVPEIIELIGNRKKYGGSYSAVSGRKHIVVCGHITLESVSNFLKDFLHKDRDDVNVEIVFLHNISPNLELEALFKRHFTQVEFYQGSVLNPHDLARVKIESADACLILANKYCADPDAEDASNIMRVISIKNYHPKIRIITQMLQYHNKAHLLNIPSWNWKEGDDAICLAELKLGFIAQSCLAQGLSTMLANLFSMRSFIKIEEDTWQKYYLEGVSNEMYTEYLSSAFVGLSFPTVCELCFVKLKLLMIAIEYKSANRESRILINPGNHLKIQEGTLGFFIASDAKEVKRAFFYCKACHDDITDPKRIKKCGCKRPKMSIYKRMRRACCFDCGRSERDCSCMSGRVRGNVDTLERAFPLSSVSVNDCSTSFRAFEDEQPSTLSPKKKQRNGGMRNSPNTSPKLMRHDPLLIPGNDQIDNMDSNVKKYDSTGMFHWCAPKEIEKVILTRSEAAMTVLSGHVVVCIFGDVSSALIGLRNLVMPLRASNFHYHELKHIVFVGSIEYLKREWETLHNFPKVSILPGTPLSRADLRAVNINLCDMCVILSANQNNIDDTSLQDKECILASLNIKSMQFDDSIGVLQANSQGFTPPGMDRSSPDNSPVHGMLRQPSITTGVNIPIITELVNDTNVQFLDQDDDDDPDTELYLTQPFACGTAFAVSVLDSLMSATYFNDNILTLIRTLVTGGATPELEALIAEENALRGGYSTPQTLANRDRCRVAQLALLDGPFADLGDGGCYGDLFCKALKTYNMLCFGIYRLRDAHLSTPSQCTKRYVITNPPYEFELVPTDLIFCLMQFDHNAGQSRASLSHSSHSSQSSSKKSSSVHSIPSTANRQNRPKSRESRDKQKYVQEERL
# Sequence of Calcium-activated potassium channel subunit alpha-1 (Homo sapiens), Q12791 [UNDEFINED MUTATION] (Q12791 whole entry, looked up, stated change not applied): as above
compound,measurement,setting,value
Oc1ccc(Oc2ccc(Cl)c(F)c2)c(O)c1,Activity,[1],8.1%
Oc1ccc(Oc2ccc(Cl)cc2)c(O)c1,Activity,[1],1.2%
Oc1ccc(Oc2cc(Cl)cc(Cl)c2)c(O)c1,Activity,[1]; filed as opener,61.5%
Oc1ccc(Oc2cc(C(F)(F)F)cc(C(F)(F)F)c2)c(O)c1,Activity,[2],23.7%
same,Activity,[1]; filed as opener,99.3%
Nc1ccc(Oc2c(F)c(F)c(C(F)(F)F)c(F)c2F)c(C(F)(F)F)c1,Activity,[1],38%
Nc1ccc(Oc2c(F)c(F)c(C(F)(F)F)c(F)c2F)nc1,Activity,[3],inactive
Oc1ccc(Oc2ccc(Cl)c(C(F)(F)F)c2)c(O)c1,Activity,[1]; filed as opener,74.7%
O=[N+]([O-])c1ccc(Oc2c(F)c(F)c(C(F)(F)F)c(F)c2F)c(O)c1,Activity,[1],19.3%
Oc1ccc(Oc2c(F)c(F)c(C(F)(F)F)c(F)c2F)c(O)c1,Activity,[2]; filed as opener,81.3%
same,Activity,[1]; filed as opener,102%
same,EC50,[4],0.68 µM
CN(C)c1ccc(Oc2c(F)c(F)c(C(F)(F)F)c(F)c2F)c(O)c1,Activity,[1],10.2%
COc1ccc(Oc2c(F)c(F)c(Cl)c(F)c2F)c(OC)c1,Activity,[3],inactive
COc1cc(O)ccc1Oc1c(F)c(F)c(Cl)c(F)c1F,Activity,[3],inactive
Nc1ccc(Oc2c(F)c(F)c(C(F)(F)F)c(F)c2F)cn1,Activity,[3],inactive
NCCCNc1ccc(Oc2c(F)c(F)c(C(F)(F)F)c(F)c2F)c(O)c1,Activity,[1],2.4%
COc1cc(N)ccc1Oc1c(F)c(F)c(C(F)(F)F)c(F)c1F.Cl,AUC(0-t),[5],668 ng·h/mL
same,AUC(0-t),[6],6260 ng·h/mL
same,Vd,[7],3.5 L/kg
same,half-life,[8],6.4 h
same,Cmax,[9],182 ng/mL
same,half-life,[10],2.1 h
same,bioavailability,[11],9.9%
same,Tmax,[12],1.2 h
same,clearance,[13],25 mL/min/kg
Oc1cc(NCCCCN2CCOCC2)ccc1Oc1c(F)c(F)c(C(F)(F)F)c(F)c1F,"remaining at 0.5 h, 1 µM",[14],91.2%
same,"remaining at 0.5 h, 1 µM",[15],62.5%
same,EC50,[4],9.22 µM
CNc1ccc(Oc2c(F)c(F)c(C(F)(F)F)c(F)c2F)c(O)c1,"remaining at 0.5 h, 1 µM",[14],76%
same,"remaining at 1 h, 1 µM",[16],4.7%
same,Activity,[2]; filed as opener,91.7%
same,"remaining at 0.5 h, 1 µM",[15],4%
same,Activity,[1]; filed as opener,91.7%
same,"remaining at 1 h, 1 µM",[17],1.6%
same,EC50,[4],0.42 µM
Nc1ccc(Oc2c(F)c(F)c(C(F)(F)F)c(F)c2F)c(N)c1,Activity,[1],10.3%
NC(=O)c1ccc(Oc2c(F)c(F)c(C(F)(F)F)c(F)c2F)cc1,Activity,[3],inactive
Fc1c(F)c(C(F)(F)F)c(F)c(F)c1Oc1ccc2[nH]cnc2c1,Activity,[1],1%
Oc1ccc(O)c(O)c1,Activity,[3],inactive
Nc1ccc(Oc2c(F)c(F)c(C(F)(F)F)c(F)c2F)c(F)c1,"remaining at 0.5 h, 1 µM",[14],14.8%
same,Activity,[2],17.9%
same,"remaining at 0.5 h, 1 µM",[15],12.7%
same,Activity,[1]; filed as opener,83%
same,EC50,[4],1.37 µM
N#Cc1cc(N)ccc1Oc1c(F)c(F)c(C(F)(F)F)c(F)c1F,Activity,[1],8.1%
O=[N+]([O-])c1cc(O)ccc1Oc1c(F)c(F)c(C(F)(F)F)c(F)c1F,Activity,[1],0.1%
Nc1ccc(Oc2c(F)c(F)c(C(F)(F)F)c(F)c2F)c(Cl)c1,Activity,[2],5.3%
same,Activity,[1]; filed as opener,75.2%
Oc1cc(O)cc(Oc2c(F)c(F)c(Cl)c(F)c2F)c1,Activity,[1],11.8%
CCCNc1ccc(Oc2c(F)c(F)c(C(F)(F)F)c(F)c2F)c(O)c1,Activity,[1],28.1%
NCCNc1ccc(Oc2c(F)c(F)c(C(F)(F)F)c(F)c2F)c(O)c1,Activity,[1],3.3%
